Results on 5 compounds are retold here after patent US10131619B2, “α-Asary-laldehyde ester, preparation method therefor, and application thereof” (NORTHWEST UNIVERSITY, priority 2014, dated 2018).

Marks after values point to notes of the source that are not given here.

Data set [1] relates to mice. As to conditions: Wang S. S. 1995; cited from earlier work.
In data set [2] the test system is pentylenetetrazole-induced epilepsy mice model. As to the kind of experiment: Pentylenetetrazole-induced epilepsy experimental model. As to conditions: for clonic seizures / latency / mortality rate / tonic seizures: n=6.
Procedure: In order to deduce the possible anticonvulsant mechanism of α-Asaronol 3,4,5-trimethoxycinnamate, in this study, pentylenetetrazole, 3-mercaptopropionic acid and other chemical test modes were used to initially evaluate the anticonvulsant activity of the test compound (i.g: 160 mg/kg, 80 mg/kg, 40 mg/kg).
(3) Pentylenetetrazole-induced Epilepsy Experimental Model
Procedure: mice were randomly divided into five groups: treatment group (i.g: 160 mg/kg, 80 mg/kg, 40 mg/kg), control group and blank group (n=6). The treatment group was intragastrically administrated with the test compound, the control group with the positive drug carbamazepine, and the blank group with physiological saline. After 30 minutes, the mice were intragastrically administrated with pentylenetetrazole at 200 mg/kg. Each test animal was placed in one cage and observed for 60 minutes. The latency of clonic seizures, the number of clonic seizures, the number of tonic seizures, and the number of deaths for mice of each group were recorded.
Data set [3] has as its system 3-mercaptopropionic acid-induced epilepsy mice model. Put plainly: 3-mercaptopropionic acid-induced epilepsy experimental model. Format: in vivo. The conditions noted are these: for clonic seizures / latency / mortality rate / tonic seizures: n=6. An excerpt: (4) 3-mercaptopropionic Acid-induced Epilepsy Experimental Model
In data set [4] the test system is mice. Put plainly: Neurotoxicity test (Rotarod test). Format: in vivo. As to the method: (§1) The antiepileptic pharmacological tests were carried out using the anti-epileptic drug development program implemented by the National Institutes of Health (NIH), comprising the Maximal Electroshock Seizure (MES) for evaluating antiepileptic activity and the Rotarodtest for examining neurotoxicity. In order to further study and evaluate the pharmacological mechanism of anticonvulsant effect in different chemical models, two classic chemical model pentarotetrazole and 3-mercaptopropionic acid were used.
(§2) Procedure: experimental mice were place on a rotating bar fatigue device rotating at 16 revolutions per minute at 0.25 h, 0.5 h, 1 h, and 2 h after intragastric administration, respectively. […] According to the dosing regimen, concentration gradient was designed and the mice was administered with the test compound at different concentration gradient and observed for the anticonvulsant activity. Half toxic dose (TD50) was calculated according to the following equation: TD50=1 g^−1[Xm−i(ΣP−0.5)] SX50=i(ΣP−σP^2/n−1)^1/2 • 95% confidence limit for TD50=1 g^−1(1 gTD50±1.96 SX50) • wherein the meanings of the symbols in the equation are as follows: • Xm common logarithm for the maximum dose; • i common logarithm for the ratio between doses • p positive rate for each group, expressed in decimal places • n the number of animals per group • SX50 standard error of 1 gTD50

Data set [5] in a line: Neurotoxicity test (Rotarod test). Format: in vivo. As to conditions: KM, mouse, in vivo, po. On the procedure: as §1, §2
In another data set the test system is KM mice. Put plainly: Maximal Electroshock Seizure (MES) test. As to conditions: for MES: 6 mice. Type of data set: in vivo. On the procedure: as §1
(1) Maximal Electroshock Seizure (MES)
Procedure: KM mice were subjected to the following preliminary screening before they were tested, and only qualified mice were screened for the next experiment. The screening method was performed as follows: the day before the test, the test mice electrically stimulated at 15V, 60 Hz, wherein two electrodes were clamped in each ear of the mice and powered for 0.45 seconds. Mice with hind limb rigidity were included in the experimental mice and used for later experiments. The Maximal Electroshock Seizure tolerance test was performed as follows: mice were administered intragastrically with the test compound after it is dissolved, and then at 0.25 h, 0.5 h, 1 h, 2 h, 3 h and 4 h after the administration, stimulated with the electrodes in their ears at 15V, 60 Hz electric stimulation for 0.45 s, respectively. […] According to the dosing regimen, concentration gradient was designed and the mice were administered with the test compound at different concentration gradient and observed for the anticonvulsant activity. Finally, the half effective dose of the test compound at the maximum anticonvulsant activity was calculated according to the following equation: ED50=1 g^−1[Xm−i(ΣP−0.5)] SX50=i(ΣP−ΣP^2/n−1)^1/2 • 95% confidence limit for ED50=1 g^−1(1 gED50±1.96 SX50) • wherein the meanings of the symbols in the equation are as follows: • Xm common logarithm for the maximum dose; • i common logarithm for the ratio between doses • p positive rate for each group, expressed in decimal places • n the number of animals per group • SX50 standard error of 1 gED50

For `COC(=O)C=Cc1cc(OC)c(OC)c(OC)c1` [M-TMCA, methyl 3,4,5-trimethoxycinnamic acid], the “time of pentobarbital sodium-induced sleep in mice” value (shortened to “time … in mice”) with mice [1] is “prolong”.

Regarding `NC(=O)N1c2ccccc2C=Cc2ccccc21` [carbamazepine, reference compound], in data set [2] (i.g. 83 mg/kg), the clonic seizures stood at 100%, the latency turned out to be 476.8 ± 100.5 s, the mortality rate stood at 50% and the tonic seizures was found to be 33.3%. Besides, in data set [3] (i.g. 83 mg/kg), the clonic seizures was found to be 100%, the latency amounted to 277.2 ± 93.1 s, the mortality rate came to 33.3% and the tonic seizures is 33.3%.

As for `COc1cc(OC)c(OC)cc1/C=C/COC(=O)/C=C/c1cc(OC)c(OC)c(OC)c1`, in the data set on mice [4] (mice, i.g., rotarod TD50 / MES ED50), the “PI, protection index (TD50/ED50)” value stood at 10.4. The “toxicity (in words)” value with mice [4] (mouse, in vivo) was “did not show significant toxicity”. The same compound displayed a TD50 in data set [5] of 940 mg/kg. Besides, the ED50 in the data set with KM mice (Mus musculus, po, MES, mice, i.g., 95% confidence limit 63.1-128.8, read-out: ED50 (half effective dose)) came to 90.3 mg/kg. For the same compound, the MES is reported as 4/6 in the data set on KM mice (i.g. 40 mg/kg, 0.25 h); 5/6 in the data set with KM mice (i.g. 40 mg/kg, 0.5 h); 6/6 with KM mice (i.g. 40 mg/kg, 1 h); 6/6 in the data set with KM mice (i.g. 40 mg/kg, 2 h); 6/6 with KM mice (i.g. 40 mg/kg, 3 h); 6/6 with KM mice (i.g. 40 mg/kg, 4 h). In addition, the MES with KM mice (i.g. 56 mg/kg, 0.25 h) was 3/6; in the data set with KM mice (i.g. 56 mg/kg, 0.5 h) it was 4/6; with KM mice (i.g. 56 mg/kg, 1 h), 4/6; in the data set on KM mice (i.g. 56 mg/kg, 2 h) it was 5/6; in the data set with KM mice (i.g. 56 mg/kg, 3 h), 5/6; in the data set with KM mice (i.g. 56 mg/kg, 4 h) it was 5/6. For the same compound, the MES with KM mice (i.g. 78 mg/kg, 0.25 h) is listed as 3/6; in the data set on KM mice (i.g. 78 mg/kg, 0.5 h) it was 3/6; in the data set on KM mice (i.g. 78 mg/kg, 1 h), 3/6; in the data set with KM mice (i.g. 78 mg/kg, 2 h), 3/6; with KM mice (i.g. 78 mg/kg, 3 h), 4/6; with KM mice (i.g. 78 mg/kg, 4 h) it was 4/6. Moreover, the MES in the data set on KM mice (i.g. 110 mg/kg, 0.25 h) is on record as 2/6; in the data set with KM mice (i.g. 110 mg/kg, 0.5 h), 1/6; in the data set on KM mice (i.g. 110 mg/kg, 1 h), 1/6; in the data set with KM mice (i.g. 110 mg/kg, 2 h), 2/6; with KM mice (i.g. 110 mg/kg, 3 h), 3/6; in the data set with KM mice (i.g. 110 mg/kg, 4 h), 3/6. The MES with KM mice (i.g. 154 mg/kg, 0.25 h after administration) is recorded as 1/6^c; with KM mice (i.g. 154 mg/kg, 0.5 h) it was 0; with KM mice (i.g. 154 mg/kg, 1 h), 1/6; in the data set with KM mice (i.g. 154 mg/kg, 2 h) it was 1/6; in the data set on KM mice (i.g. 154 mg/kg, 3 h), 3/6; in the data set on KM mice (i.g. 154 mg/kg, 4 h), 3/6. The “anticonvulsant activity in the Maximal Electroshock Seizure test (in words)” value in the data set on KM mice (mice, i.g.) is “good anticonvulsant activity”. Moreover, the “time of clonic seizure compared with the physiological saline group” value in data set [2] (160 mg/kg, 80 mg/kg, 40 mg/kg, p<0.05) is given as “significantly prolong”; in data set [3] (160 mg/kg, 80 mg/kg, p<0.05) it was “significantly prolong”. Moreover, the “effect on inhibiting the tonic seizure and reducing the mortality compared with carbamazepine” value in data set [2] (at the same dose) is recorded as “comparable effect”; in data set [3] (160 mg/kg, 80 mg/kg), “comparable effect”. In addition, the clonic seizures in data set [2] (i.g. 40 mg/kg) came out at 100%; in data set [2] (i.g. 80 mg/kg), 83.3%; in data set [2] (i.g. 160 mg/kg), 50%; in data set [3] (i.g. 40 mg/kg), 100%; in data set [3] (i.g. 80 mg/kg) it was 83.3%; in data set [3] (i.g. 160 mg/kg), 50%. For the same compound, the latency in data set [2] (i.g. 40 mg/kg) came out at 205.6 ± 40.5 s; in data set [2] (i.g. 80 mg/kg) it was 253.6 ± 58.2 s; in data set [2] (i.g. 160 mg/kg, 30 min before pentylenetetrazole 200 mg/kg), 370.0 ± 84.8 s; in data set [3] (i.g. 40 mg/kg), 185.3 ± 39.8 s; in data set [3] (i.g. 80 mg/kg) it was 192.8 ± 85.1 s; in data set [3] (i.g. 160 mg/kg, 30 min before 3-mercaptopropionic acid 60 mg/kg), 241.5 ± 80.4 s. The mortality rate in data set [2] (i.g. 40 mg/kg) came to 100%; in data set [2] (i.g. 80 mg/kg), 66.7%; in data set [2] (i.g. 160 mg/kg), 16.7%; in data set [3] (i.g. 40 mg/kg) it was 50%; in data set [3] (i.g. 80 mg/kg), 33.3%; in data set [3] (i.g. 160 mg/kg), 33.3%. Besides, the tonic seizures in data set [2] (i.g. 40 mg/kg) was 50%; in data set [2] (i.g. 80 mg/kg), 33.3%; in data set [2] (i.g. 160 mg/kg) it was 33.3%; in data set [3] (i.g. 40 mg/kg), 50%; in data set [3] (i.g. 80 mg/kg), 33.3%; in data set [3] (i.g. 160 mg/kg) it was 33.3%. The “3-mercaptopropionic acid-induced seizures (in words)” value in data set [3] (mouse, in vivo) was “moderately reduce”.

For `COc1ccc(C=CC(=O)O)cc1` [PMCA, p-methoxycinnamic acid], the “time … in mice” value with mice [1] was “prolong”.

Consider `COc1cc(C=CC(=O)O)cc(OC)c1OC` [TMCA, 3,4,5-trimethoxycinnamic acid], for which the “time … in mice” value in the data set on mice [1] was “prolong”.
